Test results as given in patent US7674802B2, “N-linked aryl heteroaryl inhibitors of LTA4H for treating inflammation” (deCODE genetics, ehf, priority 2005, dated 2010).
Counter-ions that a name gives are not always drawn. Like-named read-outs stand apart in the source and are kept apart here.

Assays:
[1] = biological target: T1, human LTA4 hydrolase (Homo sapiens, UniProt P09960); test: In vitro assay testing inhibitory activity against purified recombinant human LTA4 hydrolase; format: biochemical
T1 construct: A human LTA4 hydrolase full-length cDNA clone (NM_000895) was purchased; His tag (own knowledge: pDEST17 adds an N-terminal 6xHis); made in house; host or cells: Escherichia coli BL21-AI
T1 sequence (P09960 1-611): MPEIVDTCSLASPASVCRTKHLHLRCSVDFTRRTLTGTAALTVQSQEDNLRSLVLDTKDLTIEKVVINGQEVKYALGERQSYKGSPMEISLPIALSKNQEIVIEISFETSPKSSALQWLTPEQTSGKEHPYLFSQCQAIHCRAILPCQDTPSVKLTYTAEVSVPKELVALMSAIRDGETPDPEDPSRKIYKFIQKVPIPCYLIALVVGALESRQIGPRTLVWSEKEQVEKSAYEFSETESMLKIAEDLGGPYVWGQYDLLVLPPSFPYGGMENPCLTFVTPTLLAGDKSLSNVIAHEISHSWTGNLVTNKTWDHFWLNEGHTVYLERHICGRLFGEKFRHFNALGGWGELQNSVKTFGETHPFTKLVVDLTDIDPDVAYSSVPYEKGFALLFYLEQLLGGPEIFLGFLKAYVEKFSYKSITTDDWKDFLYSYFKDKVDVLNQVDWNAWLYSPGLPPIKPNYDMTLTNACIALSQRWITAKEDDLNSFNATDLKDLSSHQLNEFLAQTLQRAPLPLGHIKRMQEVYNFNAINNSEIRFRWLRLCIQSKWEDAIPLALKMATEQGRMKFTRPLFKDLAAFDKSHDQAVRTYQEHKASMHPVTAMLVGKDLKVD
Text: (1) In vitro Assay Testing Inhibitory Activity Against Purified Recombinant Human LTA4 Hydroase:
A human LTA4 hydrolase full-length cDNA clone (NM_000895) was purchased from OriGene Technologies (Rockville, Md.). The gene was amplified by polmerase chain reaction and transferred via pDONR201 into the bacterial expression vector pDEST17 by recombination (both plasmids from Invitrogen, Carlsbad, Calif.). The resulting construct was transformed into Escherichia coli BL21-AI (Invitrogen), and expression was induced by chemical induction with arabinose. The recombinant enzyme was purified by chromatography on a FPLC system (Amersham Biosciences, Uppsala, Sweden) using immobilized metal affinity chromatography (Ni-NTA Superflow, Qiagen, Hilden, Germany) and anion exchange chromatography (MonoQ HR 10/10, Amersham Biosciences).
(§1) The compounds of the invention were incubated in a series of dilutions with 200 nM of recombinant enzyme in assay buffer (100 mM Tris-HCl, 100 mM NaCl, 5 mg/ml fatty-acid free BSA, 10% DMSO, pH 8.0) for 10 min at room temperature to allow binding between LTA4 hydrolase and the inhibitors. LTA4 was prepared by alkaline hydrolysis of LTA4 methyl ester (Biomol, Plymouth Meeting, Pa., or Cayman Chemicals, Ann Arbor, Mich.). A solution of 10 μg of the ester was dried under a nitrogen stream and redissolved in 60 μl of a solution of 80% aceton and 20% 0.25 M NaOH.
After incubation for 40 min at room temperature the resulting approximately 500 μM tock of LTA4 was kept at −80° C. for no more than a few days prior to use.
Immediately before the assay, LTA4 was diluted to a concentration of 10 μM in assay buffer (without DMSO) and added to the reaction mixture to a final concentration of 2 μM to initiate the enzyme reaction. After incubation for 120 sec at room temperature, the reaction was stopped by ading 2 volumes of chilled quenching buffer, containing acetonitril with 1% acetic acid and 225 nM LTB4-d4 (Biomol). The samples were then kept at 4° C. over night to complete protein precipitation and centrifuged for 15 min at 1800 g. LTB4 formed was measured by LC-MS/MS using LTB4-d4 as an internal standard and an external LTB4 standard (Biomol) as reference. Briefly, the analyte was separated from LTB4 isomers formed by spontaneous hydrolysis of LTA4 using isocratic elution (modified protocol from Mueller et al. (1996), J. Biol. Chem. 271, 24345-24348) on a HPLC system (Waters, Milford, Mass.) and analyzed on a tandem quadrupole mass spectrometer (Waters). MRM transitions followed on 2 channels were 335.2>195.3 (LTB4) and 339.2>197.3 (LTB4-d4). Based on the amounts of LTB4 found at each inhibitor concentration, a dose-response curve was fitted to the data and an IC50 value was calculated.
as §1, with “NaOH. After incubation for 40 min at room temperature the resulting approximately 500 μM tock of LTA4 was kept at −80° C. for no more than a few days prior to use.” for “NaOH.”

[2] = system: ionophore-induced LTB4 production; conditions: oral administration; cited from earlier work
[3] = system: ionophore-induced LTB4 production; conditions: oral administration; cited from earlier work; remark: listed apart in the source
[4] = eight weeks of treatment, primate model; cited from earlier work
[5] = Table II, read-out: IC50 (μM)(hLTA4H)
[6] = Table IV, read-out: hLTA4H Enyzme IC 50
[7] = Table V, read-out: hLTA4H Enzyme IC50
[8] = Table III, read-out: IC50 (μM) (hLTA4H)
[9] = Table I, read-out: IC50 (μM) (hLTA4H)

## NC(=O)C1CCN(CCCOc2ccc(-n3nc4ccccc4c3Cl)cc2)CC1 [Example 10, 1-{3-[4-(3-Chloro-indazol-2-yl)-phenoxy]-propyl}-piperidine-4-carboxylic acid amide]
[1]; [5]
  IC50: < 5 µM
[1]; [6]
  IC50: < 5 µM

## CC1Cc2ccccc2N1c1ccc(OC[C@H]2CCCN2)cc1 (stereo partly shown)
[1]; [7]
  IC50: > 20 µM

## O=C(O)CCCN1CCC[C@@H]1COc1ccc(-n2nc3ccccc3c2Cl)cc1 [Example 17, 4-{(R)-2-[4-(3-Chloro-indazol-2-yl)-phenoxymethyl]-pyrrolidin-1-yl}-butyric acid Hydrochloride]
[1]; [8]
  IC50: < 5 µM
[1]; [6]
  IC50: < 5 µM

## CN(CCCOc1ccc(-n2nc3ccccc3c2Cl)cc1)CCC(=O)O [Example 5, 3-({3-[4-(3-Chloro-indazol-2-yl)-phenoxy]-propyl}-methyl-amino)-propionic acid hydrochloride salt]
[1]; [9]
  IC50: < 5 µM
[1]; [6]
  IC50: < 5 µM

## Clc1c2ccccc2nn1-c1ccc(OCCN2CCCCC2)cc1 [Example 1, 3-Chloro-2-[4-(2-piperidin-1-yl-ethoxy)-phenyl]-2H-idazole]
[1]; [5]
  IC50: < 5 µM
[1]; [6]
  IC50: < 5 µM

## O=C(O)CCCN1CCC[C@H]1COc1ccc(-n2nc3ccccc3c2Cl)cc1 [Example 19, 4-{(S)-2-[4-(3-Chloro-indazol-2-yl)-phenoxymethyl]-pyrrolidin-1-yl}-butyric acid Hydrochloride]
[1]; [8]
  IC50: < 5 µM
[1]; [6]
  IC50: < 5 µM

## CN1CCC[C@@H]1COc1ccc(N2Cc3ccccc3C2)cc1
[1]; [7]
  IC50: 5 to 20 µM

## O=C(O)CN1CCC[C@@H]1COc1ccc(-n2nc3ccccc3c2Cl)cc1 [Example 15, {(R)-2-[4-(3-Chloro-indazol-2-yl)-phenoxymethyl]-pyrrolidin-1-yl}-acetic acid Hydrochloride]
[1]; [8]
  IC50: < 5 µM
[1]; [6]
  IC50: < 5 µM

## Cc1cn(-c2ccc(OC[C@H]3CCCN3)cc2)c2ccccc12
[1]; [7]
  IC50: > 20 µM

## CN(CCCOc1ccc(-n2nc3ccccc3c2Cl)cc1)CCCC(=O)O [Example 6, 4-({3-[4-(3-Chloro-indazol-2-yl)-phenoxy]-propyl}-methyl-amino)butyric acid Hydrochloride]
[1]; [9]
  IC50: < 5 µM
[1]; [6]
  IC50: < 5 µM

## O=C(O)C1CCN(CCCOc2ccc(-n3nc4ccccc4c3Cl)cc2)CC1 [Example 8, 1-{3-[4-(3-Chloro-indazol-2-yl)-phenoxy]-propyl}-piperidine-4-carboxylic acid hydrochloride]
[1]; [5]
  IC50: < 5 µM
[1]; [6]
  IC50: < 5 µM

## Clc1c2ccccc2nn1-c1ccc(OC[C@@H]2CCCN2)cc1 [Example 13, 3-Chloro-2-[4-((S)-1-pyrrolidin-2-ylmethoxy)-phenyl]-2H-indazole hydrochloride]
[1]; [8]
  IC50: < 5 µM
[1]; [6]
  IC50: < 5 µM

## c1ccc2c(c1)cnn2-c1ccc(OC[C@H]2CCCN2)cc1
[1]; [7]
  IC50: 5 to 20 µM

## Clc1c2ccccc2nn1-c1ccc(OC[C@H]2CCCN2)cc1 [Example 12, 3-Chloro-2-[4-((R)-1-pyrrolidin-2-ylmethoxy)-phenyl]-2H-indazole]
[1]; [8]
  IC50: < 5 µM
[1]; [6]
  IC50: < 5 µM

## CNCCCOc1ccc(-n2nc3ccccc3c2Cl)cc1 [Example 4, {3-[4-(3-Chloro-indazol-2-yl)-phenoxy]-propyl}-methyl-amine hydrochloride]
[1]; [9]
  IC50: < 5 µM
[1]; [6]
  IC50: < 5 µM

## O=C(O)CN1CCC[C@H]1COc1ccc(-n2nc3ccccc3c2Cl)cc1 [Example 18, {(S)-2-[4-(3-Chloro-indazol-2-yl)-phenoxymethyl]-pyrrolidin-1-yl}-acetic acid Hydrochloride]
[1]; [8]
  IC50: < 5 µM
[1]; [6]
  IC50: < 5 µM

## CN(CCOc1ccc(-n2nc3ccccc3c2Cl)cc1)CCC(=O)O [Example 2, 3-({2-[4-(3-Chloro-indazol-2-yl)-phenoxy]-ethyl}-methyl-amino)-propionic acid hydrochloride]
[1]; [9]
  IC50: < 5 µM
[1]; [6]
  IC50: < 5 µM

## CN(CCCOc1ccc(Cc2ccccc2)cc1)CCC(=O)O.Cl [SC57461]
[2]
  inhibition of ionophore-induced LTB4 production in rat peritoneum in vivo: inhibition of ionophore-induced LTB4 production
[3]
  inhibition of ionophore-induced LTB4 production in mouse blood ex vivo: inhibition of ionophore-induced LTB4 production
[4]
  colitis symptoms: significantly improved colitis symptoms

## O=C(O)CCN1CCC[C@@H]1COc1ccc(-n2nc3ccccc3c2Cl)cc1 [Example 16, 3-{(R)-2-[4-(3-Chloro-indazol-2-yl)-phenoxymethyl]-pyrrolidin-1-yl}-propionic acid Hydrochloride]
[1]; [8]
  IC50: < 5 µM
[1]; [6]
  IC50: < 5 µM

## O=C1c2ccccc2C(=O)N1c1ccc(OC[C@H]2CCCN2)cc1
[1]; [7]
  IC50: < 5 µM

## CN(CCCC(=O)O)CCOc1ccc(-n2nc3ccccc3c2Cl)cc1 [Example 3, 4-({2-[4-(3-Chloro-indazol-2-yl)-phenoxy]-ethyl}-methyl-amino)butyric acid hydrchloride salt]
[1]; [9]
  IC50: < 5 µM
[1]; [6]
  IC50: < 5 µM

## OCC1CCN(CCCOc2ccc(-n3nc4ccccc4c3Cl)cc2)CC1 [Example 11, (1-{3-[4-(3-Chloro-indazol-2-yl)-phenoxy]-propyl}-piperidin-4-yl)-methanol]
[1]; [5]
  IC50: < 5 µM
[1]; [6]
  IC50: < 5 µM

## O=C1c2ccccc2C(=O)N1c1ccc(OCCN2CCCCC2)cc1
[1]; [7]
  IC50: < 5 µM

## CNC(=O)C1CCN(CCCOc2ccc(-n3nc4ccccc4c3Cl)cc2)CC1 [Example 9, 1-{3-[4-(3-Chloro-indazol-2-yl)-phenoxy]-propyl}-piperidine-4-carboxylic acid methylamide]
[1]; [5]
  IC50: < 5 µM
[1]; [6]
  IC50: < 5 µM
